According to PubChem BioAssay (NCI):
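Values below derive from 48-hour exposures of cells grown in 96-well plates, with endpoints linearly interpolated between the two concentrations bracketing the appropriate inhibition level. GI50 marks 50% less growth. TGI is the concentration that stops growth completely.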

Assays:
Assay in all cases: NCI-60 cell line screen, 48 h
[1] = tested on: OVCAR-3 ovarian
[2] = tested on: IGROV1 ovarian
[3] = tested on: MDA-MB-468 breast
[4] = tested on: MALME-3M melanoma
[5] = tested on: BT-549 breast
[6] = tested on: SK-MEL-2 melanoma
[7] = tested on: A549 NSCLC
[8] = tested on: SF-268 CNS
[9] = tested on: COLO 205 colon
[10] = tested on: CCRF-CEM leukemia
[11] = tested on: K-562 leukemia
[12] = tested on: TK-10 renal
[13] = tested on: NCI-H522 lung
[14] = tested on: MOLT-4 leukemia
[15] = tested on: DU-145 prostate
[16] = tested on: HCC-2998 colon
[17] = tested on: M14 melanoma
[18] = tested on: SW-620 colon
[19] = tested on: CAKI-1 renal
[20] = tested on: MCF7 breast
[21] = tested on: SK-MEL-5 melanoma
[22] = tested on: T-47D breast
[23] = tested on: HOP-62 NSCLC
[24] = tested on: MDA-MB-435
[25] = tested on: NCI-H460 lung
[26] = tested on: HCT-116 colon
[27] = tested on: LOX IMVI melanoma
[28] = tested on: EKVX NSCLC
[29] = tested on: OVCAR-4 ovarian
[30] = tested on: NCI-H23 lung
[31] = tested on: RXF 393 renal
[32] = tested on: HOP-92 NSCLC
[33] = tested on: OVCAR-5 ovarian
[34] = tested on: NCI/ADR-RES ovarian
[35] = tested on: SK-OV-3 ovarian
[36] = tested on: SK-MEL-28 melanoma
[37] = tested on: HCT-15 colon
[38] = tested on: OVCAR-8 ovarian
[39] = tested on: A498 renal
[40] = tested on: SF-539 CNS
[41] = tested on: UO-31 renal
[42] = tested on: NCI-H226 lung
[43] = tested on: PC-3 prostate
[44] = tested on: SF-295 CNS
[45] = tested on: 786-0 renal
[46] = tested on: HT29 colon
[47] = tested on: UACC-257 melanoma
[48] = tested on: SNB-75 CNS
[49] = tested on: ACHN renal
[50] = tested on: RPMI-8226 leukemia
[51] = tested on: KM12 colon
[52] = tested on: HL-60(TB) leukemia
[53] = tested on: U251 CNS
[54] = tested on: HS 578T breast
[55] = tested on: SR leukemia
[56] = tested on: SNB-19 CNS
[57] = tested on: UACC-62 melanoma

CN(C)c1nc(NCCNS(=O)(=O)c2ccc(C3=Nc4c(N)nc(N)nc4NC(c4ccc(C(F)(F)F)cc4)C3)cc2)nc(Nc2ccc(F)cc2)n1 (configuration not stated)
GI50 [1]: 11.9 µM | TGI [1]: > 86 µM | GI50 [2]: 11.2 µM | TGI [2]: > 86 µM | GI50 [3]: 2.67 µM | TGI [3]: 11.7 µM | GI50 [4]: 11.3 µM | TGI [4]: 24.2 µM | GI50 [5]: 11.8 µM | TGI [5]: 32.6 µM | GI50 [6]: 10.8 µM | TGI [6]: 24.7 µM | GI50 [7]: 55 µM | TGI [7]: > 86 µM | GI50 [8]: 11.2 µM | TGI [8]: > 86 µM | GI50 [9]: 9.73 µM | TGI [9]: 21.8 µM | GI50 [10]: 3.24 µM | TGI [10]: > 86 µM | GI50 [11]: 3.51 µM | TGI [11]: > 86 µM | GI50 [12]: > 86 µM | TGI [12]: > 86 µM | GI50 [13]: 17.8 µM | TGI [13]: 44.8 µM | GI50 [14]: 2.74 µM | TGI [14]: > 86 µM | GI50 [15]: 38.5 µM | TGI [15]: > 86 µM | GI50 [16]: 4.72 µM | TGI [16]: 25.9 µM | GI50 [17]: 7.87 µM | TGI [17]: > 86 µM | GI50 [18]: 14.3 µM | TGI [18]: > 86 µM | GI50 [19]: 36.8 µM | TGI [19]: > 86 µM | GI50 [20]: 2.87 µM | TGI [20]: 21 µM | GI50 [21]: 10.4 µM | TGI [21]: 21.3 µM | GI50 [22]: 12 µM | TGI [22]: > 86 µM | GI50 [23]: 31.4 µM | TGI [23]: > 86 µM | GI50 [24]: 9.13 µM | TGI [24]: > 86 µM | GI50 [25]: 5.49 µM | TGI [25]: > 86 µM | GI50 [26]: 5.1 µM | TGI [26]: > 86 µM | GI50 [27]: 3.14 µM | TGI [27]: 12 µM | GI50 [28]: 5.52 µM | TGI [28]: > 86 µM | GI50 [29]: 25 µM | TGI [29]: > 86 µM | GI50 [30]: 27.7 µM | TGI [30]: > 86 µM | GI50 [31]: 2.57 µM | TGI [31]: 18.8 µM | GI50 [32]: 2.99 µM | TGI [32]: 16.9 µM | GI50 [33]: 19.9 µM | TGI [33]: > 86 µM | GI50 [34]: > 86 µM | TGI [34]: > 86 µM | GI50 [35]: > 86 µM | TGI [35]: > 86 µM | GI50 [36]: 15 µM | TGI [36]: > 86 µM | GI50 [37]: 55.1 µM | TGI [37]: > 86 µM | GI50 [38]: 26.1 µM | TGI [38]: > 86 µM | GI50 [39]: 22.2 µM | TGI [39]: 77.4 µM | GI50 [40]: 6.22 µM | TGI [40]: 24.7 µM | GI50 [41]: > 86 µM | TGI [41]: > 86 µM | GI50 [42]: 37.3 µM | TGI [42]: > 86 µM | GI50 [43]: 4.37 µM | TGI [43]: > 86 µM | GI50 [44]: 12.9 µM | TGI [44]: > 86 µM | GI50 [45]: 10.1 µM | TGI [45]: 39.8 µM | GI50 [46]: 4.88 µM | TGI [46]: 18.3 µM | GI50 [47]: 23.3 µM | TGI [47]: > 86 µM | GI50 [48]: 2.13 µM | TGI [48]: > 86 µM | GI50 [49]: > 86 µM | TGI [49]: > 86 µM | GI50 [50]: 4 µM | TGI [50]: > 86 µM | GI50 [51]: 6.14 µM | TGI [51]: > 86 µM | GI50 [52]: 4.07 µM | TGI [52]: > 86 µM | GI50 [53]: 5.52 µM | TGI [53]: > 86 µM | GI50 [54]: 9.03 µM | TGI [54]: > 86 µM

COc1ccc2cc([C@H](C)C(=O)[Se]CCC#N)ccc2c1
GI50 [1]: 2.39 µM | TGI [1]: 5.78 µM | GI50 [2]: 2.23 µM | TGI [2]: 4.98 µM | GI50 [3]: 1.96 µM | TGI [3]: 4.41 µM | GI50 [4]: 1.64 µM | TGI [4]: 3.39 µM | GI50 [5]: 1.61 µM | TGI [5]: 3.12 µM | GI50 [6]: 1.9 µM | TGI [6]: 4.39 µM | GI50 [8]: 2.44 µM | TGI [8]: 5.11 µM | GI50 [9]: 5.81 µM | TGI [9]: 23.1 µM | GI50 [10]: 3.06 µM | TGI [10]: 56.8 µM | GI50 [11]: 3.78 µM | TGI [11]: 23.6 µM | GI50 [12]: 1.63 µM | TGI [12]: 3.09 µM | GI50 [13]: 1.48 µM | TGI [13]: 2.92 µM | GI50 [14]: 2.62 µM | TGI [14]: 13 µM | GI50 [15]: 2.66 µM | TGI [15]: 8.51 µM | GI50 [16]: 7.06 µM | TGI [16]: 22.6 µM | GI50 [17]: 1.48 µM | TGI [17]: 3.44 µM | GI50 [18]: 2.91 µM | TGI [18]: 7.97 µM | GI50 [19]: 1.88 µM | TGI [19]: 3.32 µM | GI50 [20]: 2.22 µM | TGI [20]: 10 µM | GI50 [21]: 2.02 µM | TGI [21]: 4.07 µM | GI50 [55]: 2.13 µM | TGI [55]: 12.2 µM | GI50 [22]: 5.43 µM | TGI [22]: 28.2 µM | GI50 [23]: 2.16 µM | TGI [23]: 3.94 µM | GI50 [24]: 1.79 µM | TGI [24]: 3.73 µM | GI50 [25]: 2.72 µM | TGI [25]: 12.1 µM | GI50 [26]: 1.79 µM | TGI [26]: 3.37 µM | GI50 [27]: 1.89 µM | TGI [27]: 4.97 µM | GI50 [56]: 1.79 µM | TGI [56]: 3.47 µM | GI50 [30]: 2.71 µM | TGI [30]: 7.95 µM | GI50 [31]: 1.67 µM | TGI [31]: 3.22 µM | GI50 [32]: 1.76 µM | TGI [32]: 3.48 µM | GI50 [33]: 2.52 µM | TGI [33]: 6.29 µM | GI50 [34]: 2 µM | TGI [34]: 5.21 µM | GI50 [35]: 4.49 µM | TGI [35]: 7.42 µM | GI50 [36]: 2.02 µM | TGI [36]: 4.8 µM | GI50 [37]: 2 µM | TGI [37]: 4.53 µM | GI50 [57]: 2.52 µM | TGI [57]: 7.52 µM | GI50 [39]: 1.78 µM | TGI [39]: 3.27 µM | GI50 [40]: 1.95 µM | TGI [40]: 3.75 µM | GI50 [41]: 1.44 µM | TGI [41]: 2.78 µM | GI50 [42]: 1.56 µM | TGI [42]: 3.63 µM | GI50 [43]: 2.7 µM | TGI [43]: 8.53 µM | GI50 [44]: 1.81 µM | TGI [44]: 3.55 µM | GI50 [45]: 2.12 µM | TGI [45]: 3.72 µM | GI50 [46]: 2.02 µM | TGI [46]: 4.82 µM | GI50 [48]: 1.78 µM | TGI [48]: 3.59 µM | GI50 [49]: 2.42 µM | TGI [49]: 5.42 µM | GI50 [50]: 2.86 µM | TGI [50]: 9.32 µM | GI50 [51]: 5.63 µM | TGI [51]: 50.9 µM | GI50 [52]: 1.38 µM | TGI [52]: 4.24 µM | GI50 [53]: 1.7 µM | TGI [53]: 3.26 µM | GI50 [54]: 2.07 µM | TGI [54]: 7.29 µM
